Laboratory results taken from patent publication EP0183129A1, “Quinolonecarboxylic acid derivatives” (KYORIN PHARMACEUTICAL CO., LTD., priority 1984, dated 1986).
Where a name gives a salt, the structure may show the parent alone. Read-outs that look alike come from different tables or passages of the source.

Experiments:
S. faecalis 49 = experiment: In vitro antibacterial activity, MIC (clinical isolates); type: cell-based; conditions: Enterococcus faecalis; S. faecalis 49; 10^6 cells/ml; clinical isolate; read-out: MIC
[1] = test system: Pseudomonas aeruginosa V-1; experiment: In vitro antibacterial activity, MIC (standard strain); type: cell-based; conditions: V1; Pseudomonas aeruginosa V-1; 10^6 cells/ml; standard strain; read-out: MIC
[2] = test system: Serratia marcescens IID 618; experiment: as above; type: cell-based; conditions: Serratia marcescens, IID618, Serratia marcescens IID 618; 10^6 cells/ml; standard strain; read-out: MIC
[3] = test system: Acinetobacter anitratus IID 876; experiment: as above; type: cell-based; conditions: Acinetobacter calcoaceticus, IID876, Acinetobacter anitratus IID 876; 10^6 cells/ml; standard strain; read-out: MIC
[4] = test system: Yersinia enterocolitica IID 981; experiment: as above; type: cell-based; conditions: IID981; Yersinia enterocolitica IID 981; 10^6 cells/ml; standard strain; read-out: MIC
K. pneumoniae 1-220S = experiment: as above; type: cell-based; conditions: Klebsiella pneumoniae, 1220S; K. pneumoniae 1-220S; 10^6 cells/ml; standard strain; read-out: MIC
S. faecalis 401 = experiment: In vitro antibacterial activity, MIC (clinical isolates); type: cell-based; conditions: Enterococcus faecalis; S. faecalis 401; 10^6 cells/ml; clinical isolate; read-out: MIC
[5] = test system: Klebsiella pneumoniae KY(GN)6445; experiment: In vitro antibacterial activity, MIC (standard strain); type: cell-based; conditions: Klebsiella pneumoniae KY(GN)6445; 10^6 cells/ml; standard strain; read-out: MIC
[6] = test system: Salmonella entritidis IID 604; experiment: as above; type: cell-based; conditions: IID604; Salmonella entritidis IID 604; 10^6 cells/ml; standard strain; read-out: MIC
S. pyogenes 3102 = experiment: In vitro antibacterial activity, MIC (clinical isolates); type: cell-based; conditions: Streptococcus pyogenes; S. pyogenes 3102; 10^6 cells/ml; clinical isolate; read-out: MIC
S. pyogenes 4340 = experiment: as above; type: cell-based; conditions: Streptococcus pyogenes; S. pyogenes 4340; 10^6 cells/ml; clinical isolate; read-out: MIC
S. pneumoniae IID 552 = experiment: In vitro antibacterial activity, MIC (standard strain); type: cell-based; conditions: Streptococcus pneumoniae, IID552; S. pneumoniae IID 552; 10^6 cells/ml; standard strain; read-out: MIC
[7] = test system: Proteus vulgaris IFO 3167; experiment: as above; type: cell-based; conditions: IFO3167; Proteus vulgaris IFO 3167; 10^6 cells/ml; standard strain; read-out: MIC
S. faecalis 214 = experiment: In vitro antibacterial activity, MIC (clinical isolates); type: cell-based; conditions: Enterococcus faecalis; S. faecalis 214; 10^6 cells/ml; clinical isolate; read-out: MIC
S. agalactiae 4394 = experiment: as above; type: cell-based; conditions: Streptococcus agalactiae; S. agalactiae 4394; 10^6 cells/ml; clinical isolate; read-out: MIC
S. agalactiae 4468 = experiment: as above; type: cell-based; conditions: Streptococcus agalactiae; S. agalactiae 4468; 10^6 cells/ml; clinical isolate; read-out: MIC
[8] = test system: Escherichia coli NIHJ JC-2; experiment: In vitro antibacterial activity, MIC (standard strain); type: cell-based; conditions: Escherichia coli
S. agalactiae 4049 = experiment: In vitro antibacterial activity, MIC (clinical isolates); type: cell-based; conditions: Streptococcus agalactiae; S. agalactiae 4049; 10^6 cells/ml; clinical isolate; read-out: MIC
[9] = test system: Streptococcus pyogenes S-8; experiment: In vitro antibacterial activity, MIC (standard strain); type: cell-based; conditions: S8; Streptococcus pyogenes S-8; 10^6 cells/ml; standard strain; read-out: MIC
S. pneumoniae 2950 = experiment: In vitro antibacterial activity, MIC (clinical isolates); type: cell-based; conditions: Streptococcus pneumoniae; S. pneumoniae 2950; 10^6 cells/ml; clinical isolate; read-out: MIC
C. ramosum = experiment: In vitro antibacterial activity, MIC (standard strain); type: cell-based; conditions: Thomasclavelia ramosa; C. ramosum; 10^6 cells/ml; standard strain; read-out: MIC
S. aureus Smith = experiment: as above; type: cell-based, Staphylococcus aureus
P. mirabilis IID 994 = experiment: as above; type: cell-based; conditions: Proteus mirabilis, IID994; P. mirabilis IID 994; 10^6 cells/ml; standard strain; read-out: MIC
S. pyogenes IID 692 = experiment: as above; type: cell-based; conditions: Streptococcus pyogenes, IID692; S. pyogenes IID 692; 10^6 cells/ml; standard strain; read-out: MIC
S. faecalis 402 = experiment: In vitro antibacterial activity, MIC (clinical isolates); type: cell-based; conditions: Enterococcus faecalis; S. faecalis 402; 10^6 cells/ml; clinical isolate; read-out: MIC
B. fragilis 0558 = experiment: In vitro antibacterial activity, MIC (standard strain); type: cell-based, Bacteroides fragilis; conditions: Bacteroides fragilis, 0558, B. fragilis 0558; 10^6 cells/ml; standard strain; read-out: MIC
S. pyogenes 3107 = experiment: In vitro antibacterial activity, MIC (clinical isolates); type: cell-based; conditions: Streptococcus pyogenes; S. pyogenes 3107; 10^6 cells/ml; clinical isolate; read-out: MIC
S. agalactiae 4368 = experiment: as above; type: cell-based; conditions: Streptococcus agalactiae; S. agalactiae 4368; 10^6 cells/ml; clinical isolate; read-out: MIC
S. marcescens GN 7577 = experiment: In vitro antibacterial activity, MIC (standard strain); type: cell-based; conditions: Serratia marcescens, GN7577; S. marcescens GN 7577; 10^6 cells/ml; standard strain; read-out: MIC
S. agalactiae 4342 = experiment: In vitro antibacterial activity, MIC (clinical isolates); type: cell-based; conditions: Streptococcus agalactiae; S. agalactiae 4342; 10^6 cells/ml; clinical isolate; read-out: MIC
S. pneumoniae 15 = experiment: as above; type: cell-based; conditions: Streptococcus pneumoniae; S. pneumoniae 15; 10^6 cells/ml; clinical isolate; read-out: MIC
[10] = NIHJJC2, Escherichia coli NIHJ JC-2, 10^6 cells/ml, standard strain, read-out: MIC
[11] = MIC column of Table 3-1, beside ED50 against S. aureus Smith
[12] = Staphylococcus aureus, S. aureus Smith, 10^6 cells/ml, standard strain, read-out: MIC

Compound | MIC (S. faecalis 49) [mg/L] | MIC [1] [mg/L] | MIC [2] [mg/L] | MIC [3] [mg/L] | MIC [4] [mg/L] | MIC (K. pneumoniae 1-220S) [mg/L] | MIC (S. faecalis 401) [mg/L] | MIC [5] [mg/L] | MIC [6] [mg/L] | MIC (S. pyogenes 3102) [mg/L] | MIC (S. pyogenes 4340) [mg/L] | MIC (S. pneumoniae IID 552) [mg/L] | MIC [7] [mg/L] | MIC (S. faecalis 214) [mg/L] | MIC (S. agalactiae 4394) [mg/L] | MIC (S. agalactiae 4468) [mg/L] | MIC (S. agalactiae 4049) [mg/L] | MIC [9] [mg/L] | MIC (C. ramosum) [mg/L] | MIC (P. mirabilis IID 994) [mg/L] | other results
NCC1CCN(c2c(F)cc3c(=O)c(C(=O)O)cn(C4CC4)c3c2F)C1 (stereo not drawn) [Example 1, 7-(3-Aminomethyl-l-pyrrolidinyl)-l-cyclopropyl-6,8-difluoro-1,4-dihydro-4-oxo-3-quinolinecarboxylic acid hydrochloride] | 0.1 | 0.39 | 0.2 | 0.1 | 0.05 | 0.05 | 0.1 | 0.05 | 0.05 | 0.05 | 0.05 | 0.05 | 0.025 | 0.1 | 0.1 | 0.05 | 0.05 | 0.05 | 0.78 | 0.05 | MIC [8, 10]: 0.025 mg/L; MIC (S. pneumoniae 2950): 0.05 mg/L; MIC (S. aureus Smith; [11]): 0.05 mg/L; MIC (S. aureus Smith; [12]): 0.05 mg/L; MIC (S. pyogenes IID 692): 0.05 mg/L; MIC (S. faecalis 402): 0.1 mg/L; MIC (B. fragilis 0558): 0.39 mg/L; MIC (S. pyogenes 3107): 0.05 mg/L; MIC (S. agalactiae 4368): 0.05 mg/L; MIC (S. marcescens GN 7577): 0.78 mg/L; MIC (S. agalactiae 4342): 0.05 mg/L; MIC (S. pneumoniae 15): 0.05 mg/L
CCNCC1CCN(c2c(F)cc3c(=O)c(C(=O)O)cn(C4CC4)c3c2F)C1 (stereo not drawn) [Example 2, l-Cyclopropyl-7-(3-ethylaminomethyl-l-pyrrolidinyl)-6,8-difluoro-l,4-dihydro-4-oxo-3-quinolinecarboxylic acid hydrochloride] | 0.2 | 0.78 | 0.1 | 0.05 | 0.1 | 0.1 | 0.2 | 0.05 | 0.05 | 0.05 | 0.1 | 0.1 | 0.025 | 0.2 | 0.2 | 0.1 | 0.1 | 0.1 | 0.78 | 0.05 | MIC [8, 10]: 0.025 mg/L; MIC (S. pneumoniae 2950): 0.1 mg/L; MIC (S. aureus Smith; [11]): 0.025 mg/L; MIC (S. aureus Smith; [12]): 0.025 mg/L; MIC (S. pyogenes IID 692): 0.2 mg/L; MIC (S. faecalis 402): 0.2 mg/L; MIC (B. fragilis 0558): 0.78 mg/L; MIC (S. pyogenes 3107): 0.05 mg/L; MIC (S. agalactiae 4368): 0.1 mg/L; MIC (S. marcescens GN 7577): 1.56 mg/L; MIC (S. agalactiae 4342): 0.1 mg/L; MIC (S. pneumoniae 15): 0.05 mg/L
CCNCC1CCN(c2cc3c(cc2F)c(=O)c(C(=O)O)cn3C2CC2)C1.Cl (centres unmarked) [Example 7, 1-Cyclopropyl-7-(3-ethylaminomethyl-1-pyrrolidinyl)-6-fluoro-1,4-dihydro-4-oxo-3-quinolinecarboxylic acid hydrochloride] | 0.78 | 1.56 | 0.39 | 0.78 | 0.39 | 0.2 | 0.78 | 0.1 | 0.2 | 0.2 | 0.2 | 0.39 | 0.05 | 0.78 | 0.39 | 0.39 | 0.78 | 0.39 | 6.25 | 0.2 | MIC [8, 10]: 0.05 mg/L; MIC (S. pneumoniae 2950): 0.39 mg/L; MIC (S. aureus Smith; [12]): 0.1 mg/L; MIC (S. pyogenes IID 692): 0.39 mg/L; MIC (S. faecalis 402): 0.78 mg/L; MIC (B. fragilis 0558): 25 mg/L; MIC (S. pyogenes 3107): 0.2 mg/L; MIC (S. agalactiae 4368): 0.39 mg/L; MIC (S. marcescens GN 7577): 6.25 mg/L; MIC (S. agalactiae 4342): 0.39 mg/L; MIC (S. pneumoniae 15): 0.39 mg/L
NCC1CCN(c2c(F)cc3c(=O)c(C(=O)O)cn(C4CC4)c3c2Cl)C1 (stereo not drawn) [Example 14, 8-Chloro-l-cyclopropyl-6-fluoro-l,4-dihydro-7-(3-aminomethyl-l-pyrrolidinyl)-4-oxo-3-quinolinecarboxylic acid hydrochloride] | 0.05 | 0.2 | 0.05 | 0.05 | 0.05 | 0.05 | 0.05 | 0.025 | 0.025 | 0.025 | 0.05 | 0.025 | 0.025 | 0.05 | 0.1 | 0.05 | 0.05 | 0.05 | 0.39 | 0.025 | MIC ([8]; NIHJJC2): 0.0125 mg/L; MIC (S. aureus Smith; Staphylococcus aureus, S. aureus Smith, 10^6 cells/ml, standard strain): 0.0125 mg/L; MIC (S. pyogenes IID 692): 0.05 mg/L; MIC (S. faecalis 402): 0.05 mg/L; MIC (B. fragilis 0558): 0.05 mg/L; MIC (S. pyogenes 3107): 0.025 mg/L; MIC (S. agalactiae 4368): 0.05 mg/L; MIC (S. marcescens GN 7577): 0.39 mg/L; MIC (S. agalactiae 4342): 0.05 mg/L; MIC (S. pneumoniae 15): 0.025 mg/L
